Results on four molecules are retold here after patent US9573898B2, “Pyridine derivates and their use as Umami tastants” (Givaudan S.A., priority 2011, dated 2017).

Format in all cases: in vivo, human
Assay [1] deals with trained sensory panel composed of 20 women. Kind of assay: Potato chips tasting by a trained sensory panel (Example 6). The procedure:
Plain potato chips were prepared. • One part was flavoured with 1.2% sodium chloride (sample A). • One part was flavoured with 1.2% sodium chloride and 0.3% mono sodium glutamate (sample B). • One part was flavoured with 1.2% sodium chloride and 5 ppm 2-(2,3-dihydro-1H-inden-5-yloxy)-N-(pyridin-2-ylmethyl)acetamide (sample C).
The samples A, B and C were tasted by a trained sensory panel composed of 20 women aged between 30 and 60.

Assay [2] has as its system professional panel composed of 2 women and 3 men. Nature of the assay: Tasting of NaCl/MSG/ribonucleotide solutions by a professional panel (Example 3). The note with it: solution B (0.5% NaCl, 0.05% MSG, 0.010% ribonucleotide mixture, 2 ppm compound) vs solution A (0.5% NaCl, 0.15% MSG, 0.025% ribonucleotide mixture). The procedure:
Two solutions were prepared: • A—a solution of 0.5% NaCl, 0.15% MSG and 0.025% Ribonucleotide mixture, • B—a solution of 0.5% NaCl, 0.05% MSG, 0.010% Ribonucleotide mixture and 2 ppm of 2-(2,3-dihydro-1H-inden-5-yloxy)-N-(pyridin-2-ylmethyl)acetamide.
The samples were tasted by a professional panel composed of 2 women and 3 men aged between 30 and 60.

Assay [3] shares this test system. Nature of the assay: Tasting of NaCl solutions by a professional panel (Example 2). The procedure:
Two solutions were prepared: • A—a solution of 0.3% NaCl and 0.05% MSG, • B—a solution of 0.3% NaCl and 1 ppm of 2-(2,3-dihydro-1H-inden-5-yloxy)-N-(pyridin-2-ylmethyl)acetamide.
The samples were tasted by a professional panel composed of 2 women and 3 men aged between 30 and 60. The panel agreed that both solutions tasted umami.

Assay [4] concerns small group of flavourists (2 male, 2 female). Nature of the assay: Diluted soy sauce tasting by flavourists (Example 7). The note with it: sample A: Kikkoman soy sauce diluted 10 times, 1.5 ppm compound. The procedure:
Kikkoman® soy sauce was diluted 10 times with tap water. One part of the base soy sauce was taken as the reference. To another part (called sample A) 1.5 ppm of 2-(2,3-dihydro-1H-inden-5-yloxy)-N-(pyridin-2-ylmethyl)acetamide was added. To a third part (called sample B) 0.5 ppm of 2-(2,3-dihydro-1H-inden-5-yloxy)-N-(pyridin-2-ylmethyl)acetamide and 1 ppm of 1-(2-hydroxy-4-methoxyphenyl)-3-(pyridin-2-yl)propan-1-one were added.

For assay [5] the test system is unchanged. Kind of assay: Tomato soup tasting by flavourists (Example 5). Particulars: tomato soup containing 2 ppm compound vs reference soup. The procedure:
A tomato soup mix was prepared from 9.4 g of sodium chloride, 1 g of mono sodium glutamate, 0.08 g ribonucleotides (ex yeast), 32 g of tomato powder (ex Spreda), 25.1 g of glucose, 21 g of starch (Ultrasperse® 5 ex National Starch), 5 g of palm fat powder, 3 g of yeast powder, 1 g of onion powder, 0.15 g of carrot powder, 0.05 g of ground white pepper, 0.3 g celery extract powder, 0.05 g of ground laurel leaf powder, and 1.85 g of sucrose.
25 g of the well mixed ingredients was added to 250 g of boiling water and stirred until completely dissolved.
The reference soup was compared with a batch of the same soup containing 2 ppm of 2-(2,3-dihydro-1H-inden-5-yloxy)-N-(pyridin-2-ylmethyl)acetamide.

Assay [6] relates to professional panel composed of 2 women and 2 men. Kind of assay: Tasting of NaCl/ribonucleotide solutions by a professional panel (Example 4). The note with it: 10 ppm compound in 0.5% NaCl and 0.002% ribonucleotide mixture vs the same solution without compound. The procedure:
Three solutions were prepared: • A—a solution of 0.5% NaCl and 0.002% Ribonucleotide mixture, • B—a solution of 0.5% NaCl, 0.002% Ribonucleotide mixture and 10 ppm of 2-(4-ethylphenoxy)-N-(pyridin-2-ylmethyl)acetamide, • C—a solution of 0.5% NaCl, 0.002% Ribonucleotide mixture and 10 ppm of 2-(4-isopropylphenoxy)-N-(pyridin-2-ylmethyl)acetamide.
The samples were tasted by a professional panel composed of 2 women and 2 men aged between 30 and 60.

The mark [7] stands for this setting: solution B (0.3% NaCl, 1 ppm compound) vs solution A (0.3% NaCl, 0.05% MSG).

The structures appear in SMILES notation.

For the molecule `O=C(COc1ccc2c(c1)CCC2)NCc1ccccn1` [2-(2,3-dihydro-1H-inden-5-yloxy)-N-(pyridin-2-ylmethyl)acetamide], the panel preference result in assay [1] (sample C (1.2% sodium chloride, 5 ppm compound) vs sample A (1.2% NaCl) and sample B (1.2% NaCl, 0.3% MSG)) was “preferred over the other two samples”. For the same molecule, the taste description entry in assay [1] (sample C: 1.2% sodium chloride and 5 ppm compound) was “salty, umami, long lasting, savory”. For the same molecule, the “umami strength compared with solution A” value in assay [2] is “equal umami strength”. For the same molecule, in assay [3] (setting [7]), the “further taste notes compared with solution A” value is “more succulence and sweetness and had more lingering notes”; the “umami strength compared with solution A” value is on record as “slightly stronger umami”. In addition, in assay [3] (solution B: 0.3% NaCl and 1 ppm compound), the “umami taste of solution” value is “tasted umami”. In addition, in assay [4], the “complexity compared with base soy sauce” value is recorded as “more complex”; the “umami and sweet taste compared with base soy sauce” value is “more umami and slightly more sweet”. Besides, in assay [5], the “complexity of taste compared with base soup” value is recorded as “tasted more complex” and the “umami taste compared with base soup” value was “more umami”.

For `CCc1ccc(OCC(=O)NCc2ccccn2)cc1` [2-(4-ethylphenoxy)-N-(pyridin-2-ylmethyl)acetamide], the “umami strength compared with solution A” value in assay [6] is listed as “stronger umami strength”.

As for `CC(C)c1ccc(OCC(=O)NCc2ccccn2)cc1` [2-(4-isopropylphenoxy)-N-(pyridin-2-ylmethyl)acetamide], the “umami strength compared with solution A” value in assay [6] is listed as “stronger umami strength”.

On to `N[C@@H](CCC(=O)O)C(=O)[O-].[Na+]` [MSG, mono sodium glutamate, reference compound], for which the taste description result in assay [1] (sample B: 1.2% sodium chloride and 0.3% mono sodium glutamate) is “salty and umami”. Moreover, in assay [3] (solution A: 0.3% NaCl and 0.05% MSG), the “umami taste of solution” value is “tasted umami”.
